Patent US10174077B2, “Method of inhibiting activity of cell surface fibroblast activation protein alpha” (The Board of Regents of the University of Oklahoma, priority 2006, dated 2019)
Where two headings read alike, the source gives them in different places. Where a SMILES comes first, the peptide text is derived from it. [ ]: non-standard residue; d: D form. Pip = O=C(O)[C@@H]1CCCCN1; AEEA = NCCOCCOCC(=O)O

Tests used:
APCE = biological target: T1, APCE (Homo sapiens, UniProt Q12884); test: APCE enzyme assay with fluorescent AMC substrates, competitive inhibition constants; format: biochemical; conditions: for Selectivity, Ki (DPPIV)/Ki (APCE/FAP): ratio of Ki values
T1 construct: APCE lacks the first 23 amino terminal residues of FAP; tissue Sylvan Goldman Blood Institute (source of the plasma); host or cells: human plasma
T1 sequence (Q12884 24-760 limits assumed): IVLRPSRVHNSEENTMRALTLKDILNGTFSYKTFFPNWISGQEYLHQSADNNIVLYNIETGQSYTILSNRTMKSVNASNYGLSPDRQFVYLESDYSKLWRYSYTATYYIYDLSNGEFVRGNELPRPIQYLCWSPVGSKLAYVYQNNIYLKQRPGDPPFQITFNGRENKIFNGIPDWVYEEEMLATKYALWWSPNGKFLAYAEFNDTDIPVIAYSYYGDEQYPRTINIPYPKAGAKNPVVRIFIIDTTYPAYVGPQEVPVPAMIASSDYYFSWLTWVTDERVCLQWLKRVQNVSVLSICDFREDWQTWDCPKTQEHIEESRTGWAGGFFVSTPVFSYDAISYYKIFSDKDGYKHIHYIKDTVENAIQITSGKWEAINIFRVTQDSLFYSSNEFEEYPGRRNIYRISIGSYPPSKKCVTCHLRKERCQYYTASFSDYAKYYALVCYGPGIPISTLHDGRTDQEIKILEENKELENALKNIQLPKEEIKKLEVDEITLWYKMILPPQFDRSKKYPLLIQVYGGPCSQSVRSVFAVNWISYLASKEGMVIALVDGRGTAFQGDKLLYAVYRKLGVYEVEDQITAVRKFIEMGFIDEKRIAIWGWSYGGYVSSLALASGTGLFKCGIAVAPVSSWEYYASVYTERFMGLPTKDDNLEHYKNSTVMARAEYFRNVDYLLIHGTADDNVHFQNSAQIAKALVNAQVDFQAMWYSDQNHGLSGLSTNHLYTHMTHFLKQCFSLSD
Experimental: (§1) Fluorescence was monitored with time at excitation and emission wavelengths of 360 and 460 nm using a black-sided, 96-well plate in a BIO-TEK FL600 fluorescence plate reader. For standard curves, dilutions of AMC (7-amino-4-methylcoumarin) were prepared in the same assay buffer and corresponding fluorescence was measured. The substrates in five different concentrations were mixed with four different concentrations of inhibitors around the expected Ki values; the enzyme was added and enzymatically released AMC fluorescence was recorded. […] Therefore, enzyme kinetic parameters were computed by fitting data to the following equation, employing the program PRISM, GraphPad: […]

DPPIV = DPPIV (Homo sapiens, UniProt P27487); test: DPPIV enzyme assay with fluorescent AMC substrates, inhibition constants; format: biochemical
DPPIV, sequence (P27487 whole entry, species assumed): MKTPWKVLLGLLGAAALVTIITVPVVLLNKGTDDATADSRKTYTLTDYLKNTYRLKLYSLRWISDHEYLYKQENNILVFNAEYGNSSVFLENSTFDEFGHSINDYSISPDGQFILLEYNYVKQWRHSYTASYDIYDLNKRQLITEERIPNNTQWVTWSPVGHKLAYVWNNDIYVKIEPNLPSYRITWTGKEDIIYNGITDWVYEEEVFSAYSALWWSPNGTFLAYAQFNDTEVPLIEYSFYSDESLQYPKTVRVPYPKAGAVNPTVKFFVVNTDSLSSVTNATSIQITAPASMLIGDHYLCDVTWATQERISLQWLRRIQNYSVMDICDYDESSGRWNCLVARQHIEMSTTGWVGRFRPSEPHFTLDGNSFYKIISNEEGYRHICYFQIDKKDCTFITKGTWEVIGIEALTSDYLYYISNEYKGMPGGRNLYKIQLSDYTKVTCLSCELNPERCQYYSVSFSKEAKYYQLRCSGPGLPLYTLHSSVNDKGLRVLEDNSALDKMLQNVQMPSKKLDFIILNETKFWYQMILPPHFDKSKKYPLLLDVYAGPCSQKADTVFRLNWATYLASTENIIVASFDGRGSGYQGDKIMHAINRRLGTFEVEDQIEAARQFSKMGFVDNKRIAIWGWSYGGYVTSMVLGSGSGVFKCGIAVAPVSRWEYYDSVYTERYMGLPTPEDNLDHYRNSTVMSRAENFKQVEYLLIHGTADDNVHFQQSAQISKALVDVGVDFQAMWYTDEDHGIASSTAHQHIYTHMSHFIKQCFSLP
Experimental: as §1

[1] = biological target: T2, cell surface FAP of W138 fibroblast cells (Homo sapiens, UniProt Q12884); test: Cell surface FAP activity of fibroblasts (cleavage of Ac-Arg-peg-Gly-Pro-AMC); format: cell-based
T2 construct: FAP proteolytic activity expressed on the surface of living fibroblast cells; endogenous in cells; host or cells: W138 (WI-38) fibroblasts
T2 sequence (Q12884 1-760): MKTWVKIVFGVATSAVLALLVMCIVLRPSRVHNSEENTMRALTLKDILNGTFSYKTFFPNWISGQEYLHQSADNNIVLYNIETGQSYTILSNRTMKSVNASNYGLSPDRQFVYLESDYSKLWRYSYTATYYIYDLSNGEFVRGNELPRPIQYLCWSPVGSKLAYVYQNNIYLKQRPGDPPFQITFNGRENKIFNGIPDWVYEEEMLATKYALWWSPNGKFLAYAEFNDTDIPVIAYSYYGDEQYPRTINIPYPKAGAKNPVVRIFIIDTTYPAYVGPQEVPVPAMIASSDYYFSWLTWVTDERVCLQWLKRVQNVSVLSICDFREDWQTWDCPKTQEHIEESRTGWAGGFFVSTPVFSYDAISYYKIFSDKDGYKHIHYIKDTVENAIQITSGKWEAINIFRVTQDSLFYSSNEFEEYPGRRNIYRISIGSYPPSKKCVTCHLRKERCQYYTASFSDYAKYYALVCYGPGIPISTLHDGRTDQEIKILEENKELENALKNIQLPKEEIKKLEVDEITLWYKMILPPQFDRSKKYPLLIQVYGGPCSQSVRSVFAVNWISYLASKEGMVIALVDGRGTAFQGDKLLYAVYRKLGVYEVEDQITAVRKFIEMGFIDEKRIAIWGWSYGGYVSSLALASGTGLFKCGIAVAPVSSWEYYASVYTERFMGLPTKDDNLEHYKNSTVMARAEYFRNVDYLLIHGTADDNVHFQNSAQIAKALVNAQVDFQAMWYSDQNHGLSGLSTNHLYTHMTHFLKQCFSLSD
Experimental: FIG. 6 is a graph showing cell surface FAP activity of fibroblasts. W138 Cells were seeded into opaque black 96 well cell culture plates and grown to confluency. Cells were washed with Hanks Balanced Salt Solution after which either the inhibitor compound Ac-Arg-(8-amino-3,6-dioxaoctanoyl)-D-Ala-L-boroPro, or buffer, was added. The FAP substrate, Ac—R-peg-G-P-AMC, was added and fluorescence was measured with time. The inhibitor was added to one set of cells 2 hours after substrate addition (see arrow). O.D. 360/460 was converted to APCE Units using a standard curve.
FIG. 6, for example, illustrates that FAP proteolytic activity expressed on the surface of living fibroblast cells can readily be inhibited by the inhibitor Ac-Arg-peg-D-Ala-boroPro (a.k.a. M83). We measured FAP activity by use of a synthetic substrate, Ac-Arg-peg-Gly-Pro-amidomethyl coumarin, which produces fluorescence upon cleavage of the bond between proline and the amidomethylcoumarin by FAP. In these experiments we made a treatment and then measured any fluorescence generated over several hours. The figure compares three treatments: • (1) “Control”: This curve represents addition of the substrate to live cells bathed in culture media with no other treatment. The synthetic substrate cleavage is observed as reflected by measurement of the fluorescence generated that is expressed as APCE Units.

[2] = biological target: T3, cell surface FAP of MDA-MB-435 breast cancer cells (Homo sapiens, UniProt Q12884); test: Cell surface FAP activity of breast cancer cells (cleavage of Ac-Arg-peg-Gly-Pro-AMC); format: cell-based; conditions: live MDA-MB-435 breast cancer cells, inhibitor added with substrate
T3 construct: cultured breast cancer cells also have FAP activity on their cell surface; endogenous in cells; host or cells: MDA-MB-435 cells
T3 sequence (Q12884 1-760): T2 sequence (Q12884 1-760)
Experimental: FIG. 7 is a graph showing cell surface FAP activity of breast cancer cells. MDA-MB-435 cells were seeded into opaque black 96 well cell culture plates and grown to confluency. Cells were washed with Hanks Balanced Salt solution after which either the inhibitor compound Ac-Arg-(8-amino-3,6-dioxaoctanoyl)-D-Ala-L-boroPro, or buffer, was added. The FAP substrate, Ac—R-peg-G-P-AMC, was added and fluorescence measured with time. O.D. 360/460 was converted to APCE Units using a standard curve.
In FIG. 7, the experiment was performed in exactly the same way as for FIG. 6, except live breast cancer cells were used.

[3] = best-fit value ± standard error, read-out: Ki, inhibition of APCE activity

CC(=O)N[C@@H](CCCNC(=N)N)C(=O)NCC(=O)NCC(=O)N1CCC[C@H]1B(O)O [Ac-Arg-Gly-Gly-L-boroPro]
Selectivity, Ki (DPPIV)/Ki (APCE/FAP) (APCE): 18.7 | Ki (APCE; read-out: APCE/FAP Ki): 0.0172 µM | Ki (DPPIV): 0.322 µM

Ac-Arg-peg-D-Ala-DL(75:25%)-boroPro
Ki (APCE; read-out: APCE/FAP Ki): 0.0183 µM

CC(=O)NC(CCCNC(=N)N)C(=O)NCC(=O)NCC(=O)N1CCCC1B(O)O (racemic) [Ac-Arg-Gly-Gly-DL-boroPro]
Selectivity, Ki (DPPIV)/Ki (APCE/FAP) (APCE): 14.9 | Ki (APCE; read-out: APCE/FAP Ki): 0.0229 µM | Ki (DPPIV): 0.341 µM

Ac-Arg-peg-D-Ala-DL(25:75%)-boroPro
Ki (APCE; read-out: APCE/FAP Ki): 0.0077 µM

N=C(N)NCCC[C@H](NC(=O)[C@@H](N)Cc1ccccc1)C(=O)NCCOCCOCC(=O)NCC(=O)N1CCCC[C@H]1C(N)=O [Inhibitor (11), FR-peg-G-pipecolinamide] (H-FR[AEEA]G[Pip]-NH2)
Ki (APCE; [3]): > 1000 µM

CC(=O)NC(CCCNC(=N)N)C(=O)NCCOCCOCC(=O)NC(C)C(=O)N1CCCC1B(O)O (single isomer, unassigned) [Ac-Arg-peg-D-Ala-L-boroPro, acetyl-arg-8-amino-3,6-dioxaoctanoic acid-D-ala-L-boroPro]
Selectivity, Ki (DPPIV)/Ki (APCE/FAP) (APCE): 1075 | Ki (APCE; read-out: APCE/FAP Ki): 0.0057 µM | Ki (DPPIV): 6.13 µM | Cell surface FAP activity (substrate hydrolysis, fluorescence as APCE Units) ([1]; 10 uM inhibitor added to fibroblasts 2 hrs after substrate, listed as Ac-Arg-(8-amino-3,6-dioxaoctanoyl)-D-Ala-L-boroPro): inhibited cell surface FAP immediately | Cell surface FAP activity (substrate hydrolysis, fluorescence as APCE Units) ([1]; 10 uM inhibitor added to fibroblasts 2 hrs after substrate, listed as M83): immediately and completely arrested | Cell surface FAP activity (substrate hydrolysis, fluorescence as APCE Units) ([1]; 10 uM inhibitor added to live fibroblasts simultaneously with substrate, followed 5 hours): no substrate hydrolysis occurs | Cell surface FAP activity (substrate hydrolysis, fluorescence as APCE Units) [2]: completely inhibited

FG-peg-G-pyrrolidide [Inhibitor (6)]
Ki (APCE; [3]): 703 ± 68 µM

CC(=O)N[C@@H](CCCNC(=N)N)C(=O)NCCOCCOCC(=O)N[C@H](CC(=O)O)C(=O)N1CCC[C@H]1B(O)O [Ac-Arg-peg-D-Asp-L-boroPro]
Selectivity, Ki (DPPIV)/Ki (APCE/FAP) (APCE): 5.2 | Ki (APCE; read-out: APCE/FAP Ki): 1.38 µM | Ki (DPPIV): 7.13 µM

CC(=O)NC(CCCNC(=N)N)C(=O)NCCOCCOCC(=O)NC(C)C(=O)N1CCCC1B(O)O (single isomer, unassigned) [Ac-Arg-peg-D-Ala-D-boroPro]
Selectivity, Ki (DPPIV)/Ki (APCE/FAP) (APCE): 108

FR-peg-G-[s]fluoropyrrolidide [Inhibitor (9)]
Ki (APCE; [3]): 55.3 ± 5.3 µM

CC(=O)NC(CCCNC(=N)N)C(=O)NCCOCCOCC(=O)NCC(=O)N1CCCC1B(O)O (racemic) [Ac-Arg-peg-Gly-DL-boroPro]
Selectivity, Ki (DPPIV)/Ki (APCE/FAP) (APCE): 371 | Ki (APCE; read-out: APCE/FAP Ki): 0.0031 µM | Ki (DPPIV): 1.15 µM

CC(=O)N[C@@H](CCCNC(=N)N)C(=O)NCCOCCOCC(=O)NCC(=O)N1CCC[C@H]1B(O)O [Ac-Arg-peg-Gly-L-boroPro]
Selectivity, Ki (DPPIV)/Ki (APCE/FAP) (APCE): 244 | Ki (APCE; read-out: APCE/FAP Ki): 0.0018 µM | Ki (DPPIV): 0.44 µM

CC(=O)N[C@@H](CCCNC(=N)N)C(=O)NCCOCCOCC(=O)N[C@@H](CO)C(=O)NCC(=O)N1CCC[C@H]1B(O)O [Ac-Arg-peg-Ser-Gly-L-boroPro]
Selectivity, Ki (DPPIV)/Ki (APCE/FAP) (APCE): 319

CC(=O)NC(CCCNC(=N)N)C(=O)NCCOCCOCC(=O)NC(C)C(=O)N1CCCC1B(O)O [Ac-Arg-peg-D-Ala-DL(50:50%)-boroPro]
Selectivity, Ki (DPPIV)/Ki (APCE/FAP) (APCE): 1176 | Ki (APCE; read-out: APCE/FAP Ki): 0.0095 µM | Ki (DPPIV): 11.2 µM

FR-peg-G-[r]fluoropyrrolidide [Inhibitor (8)]
Ki (APCE; [3]): 53.8 ± 4.9 µM

FR-peg-G-pyrrolidide [Inhibitor (5)]
Ki (APCE; [3]): 67.7 ± 5.8 µM
